SMILES strings stand for the structures. In brackets after ≈: the same amount, converted by molar mass. Where a name gives a salt, the structure may show the parent alone.

2 compounds from patent EP0256258A2, “Salts of methoxyphenyl-dimethylaminomethyl-cyclohexanol, medicaments containing these and process for their preparation” (Grünenthal GmbH, priority 1986, dated 1988) can be followed below.

A short description of data set [1]: Dissolution rate of finely powdered substance under USP XXI conditions (apparatus 2) in artificial intestinal juice. The conditions noted are these: pH 7.
The next data set can be described thus: physchem. As to conditions: water.

`O=C(O)Cc1ccccc1Nc1c(Cl)cccc1Cl` [II-Natriumsalz, 2-(2ʹ,6ʹ-Dichloranilino)-phenylessigsäure] registered a solubility in “Solubility in water” of around 30 mg/mL (≈ 101 mM). On to `COc1cccc([C@@]2(O)CCCC[C@@H]2CN(C)C)c1` (racemic) [I-Hydrochlorid, 1e-(m-Methoxyphenyl)-2e-dimethylaminomethyl-cyclohexan-1-(a)-ol], for which the “gelöst / in Lösung gegangen nach 2 Minuten” value in data set [1] is above 97%. The same compound gave a solubility in the data set “physchem” of 298 mg/mL.
